Measured values published in patent publication US20240182423A1, “4-AMINOQUINOLINES FOR TREATMENT OF MULTIDRUG RESISTANT MALARIA” (United States Government as represented by the Department …, priority 2022, published 2024).

Assays:
[1] = Metabolic stability in pooled murine liver microsomes; type: in vitro ADME; details: for half-life: mouse
Method: (§1) In vivo efficiency: ADCs antiplasmodial efficiency (ED50, ED90) assessed in murine malaria model against P. yoelii (Py). Metabolic stability: ADCs were assessed for metabolic stability (t1/2, Clint) in pooled murine liver microsomes. Referring to Table 1, ND=not detected.

[2] = test system: multi-drug resistant (Dd2) P. falciparum; assay: SYBR Green I fluorescence-based antiplasmodial assay, Dd2; type: cell-based, Plasmodium falciparum; details: for IC50: P. falciparum Dd2, 72 hours; for cross resistance, Dd2 vs D6: ratio of IC50 in Dd2 and D6 strains
Method: (§2) Laboratory strains of P. falciparum were cultured in human erythrocytes by standard methods (Trager, W.; Jensen, J. B. Human malaria parasites in continuous culture. Science 1976, 193 (4254), 673-675. DOI: 10.1126/science.781840 from NLM Medline). The parasites were grown in culture medium with fresh human erythrocytes maintained at 2% hematocrit at 37° C. in low-oxygen conditions (5% 02, 5% CO2, 90% N2). The culture medium used was RPMI-1640 with 25 mg/L gentamicin sulfate, 45 mg/L Albumax II, 10 mM glucose, and 25 mM HEPES buffer (Smilkstein et al., Simple and inexpensive fluorescence-based technique for high-throughput antimalarial drug screening. Antimicrob Agents Chemother 2004, 48 (5), 1803-1806. DOI: 10.1128/aac.48.5.1803-1806.2004). Cultures were maintained at less than 10% parasitemia by transfer of infected cells to fresh erythrocytes and culture medium every 3 or 4 days. […]
(§3) In vitro antimalarial activity was measured using the SYBR Green I fluorescence-based assay. […] Experiments were set up in quadruplicate in 96-well plates with a 100 μL total volume per well with 2% hematocrit, 0.2% parasitemia, and drug dilutions between 0.25 and 250 nM in complete culture medium described above. The plates were incubated at 37° C. in low-oxygen conditions described previously for 72 hours, at which point 100 μL of fluorescent dye-detergent mixture (0.2 μL SYBR Green I: 1 mL lysing buffer) was added and the plates incubated in the dark at room temperature for one hour. After incubation with the fluorescent dye, a 96-well plate reader with excitation wavelength set at 497 nm and emission at 520 nm, was used to measure fluorescence of each well.
(§4) Each of the ADC derivatives was tested for antiplasmodial activity against the drug sensitive D6 clone of P. falciparum as well as one or more of the following multidrug resistant strains: Dd2 or 7G8. The method used for antiplasmodial testing is known as the SyBr Green assay and it was described by us in 2004 (Smilkstein et al., Antimicrob Agents Chemother 2004, 48 (5), 1803-1806).

[3] = test system: drug sensitive D6 clone of P. falciparum; assay: SYBR Green I fluorescence-based antiplasmodial assay, D6; type: cell-based, Plasmodium falciparum; details: P. falciparum D6, 72 hours
Method: as §2, §3, §4

[4] = HepG2 cytotoxicity assay (resazurin); type: cell-based; details: human, HepG2 cells; HepG2, 24 h drug then 24 h drug-free; read-out: CC50 v HepG2
Method: Final compounds were assessed for mammalian cytotoxicity using an immortalized human liver carcinoma cell line (HepG2) using previously described methods.^1 In short, final compounds were prepared in DMSO as 10 mM stock solutions. […] To 96-well flat-bottomed tissue culture plates, HepG2 cells were added at 2×10 4 density with an additional 160 μL of complete culture media per well and were incubated overnight at 37° C. to allow for adherence. Compound stocks aliquots were applied as 40 μL solutions in complete media to each well in a serial dilution series that ranged from […] as duplicates. A 10 mM DMSO stock of mefloquine was used as a positive control. […] 20 μL of resazurin (Alamar Blue) in PBS buffer was added to each well to a final concentration of 10 μM, and the plates were incubated for 3 h. Fluorescence was measured at 560 nm excitation and 590 nm emission bands using a Spectramax iD3 plate reader. Fluorescence output values were normalized to the untreated control wells and plotted against the logarithm of drug concentration.

Plasmodium yoelii = assay: In vivo efficacy against murine malaria, modified 4-day test; details: for ED50 (mg/kg/d) vs Py / ED90 (mg/kg/d) vs Py: P. yoelii in mice, oral once daily for 4 days, PEG-400
Method: as §1
Selected ADC derivatives were also tested in vivo in mice using the standard 4-day test protocol as described previously. For this work the rodent malaria parasite Plasmodium yoelii was used and the mice were CF1 female. Briefly, animals were inoculated with 35,000 parasitized red blood cells (obtained from a donor animal) on Day 0 of the experiment. Beginning on the next day (Day 1) and again on the 3 succeeding days (Days 2, 3, and 4) the animals received oral doses of the test agent dissolved in the dosing vehicle PEG-400. On Day 5 a blood sample was taken from the tail vein and examined microscopically for the presence of parasites using Giemsa stained and methanol fixed blood smears.
The in vivo efficacy of selected ADC derivatives was determined against blood-stage Plasmodium yoelii using a modified 4-day test. Female mice (Charles River Laboratories) were infected intravenously with 35,000 P. yoelii parasitized erythrocytes from a donor animal (Kenya MR4 MRA-428). […] Five days after inoculation, percent parasitemia was calculated by examination of Giemsa-stained blood smears.

[5] = Plasmodium falciparum, DD2, 72 h
[6] = Plasmodium falciparum, D6, 72 h

SMILES | CIint [1] [mL/min/kg] | half-life [1] [min] | IC50 [2, 5] [nM] | cross resistance, Dd2 vs D6 [2] | IC50 [3, 6] [nM] | CC50 at 24 h [4] [nM] | IC50 [2] [nM] | IC50 [3] [nM] | ED50 (mg/kg/d) vs Py (Plasmodium yoelii) [mg/kg/day] | ED90 (mg/kg/d) vs Py (Plasmodium yoelii) [mg/kg/day] | T1/2 (min) [1] | ED50 (Plasmodium yoelii; P. yoelii, CF1 female mice, 4-day test, oral in PEG-400) [mg/kg/day]
Clc1ccc2c(Nc3ccc(N4CCN(Cc5ccccc5)CC4)cc3)ccnc2c1 [ADC-008, N-(4-(4-benzylpiperazin-1-yl)phenyl)-7-chloroquinolin-4-amine] | 391.9 | 13.9 | 15.9 | Equipotency | 16.1 | > 200000 |  |  |  |  |  | 
CCN1CCN(c2ccc(Nc3ccnc4cc(Cl)ccc34)cc2)CC1 [ADC-009, 7-chloro-N-(4-(4-ethylpiperazin-1-yl)phenyl)quinolin-4-amine] | 2936 | 1.86 | ~13 |  | ~13 | > 200000 | 12.7 | 13.2 | 1.5 | 8.4 |  | 
CN1CCN(c2ccc(Nc3ccnc4cc(Cl)ccc34)cc2)CC1 [ADC-010, 7-chloro-N-(4-(4-methylpiperazin-1-yl)phenyl)quinolin-4-amine] | 3784 | 1.44 | 14 | Equipotency | 13.3 | 185000 |  |  |  |  |  | 
Clc1ccc2c(Nc3ccc(N4CCNCC4)cc3)ccnc2c1 [ADC-011, 7-chloro-N-(4-(piperazin-1-yl)phenyl)quinolin-4-amine] |  |  | 65.8 |  | 21.8 | 54000 |  |  |  |  |  | 
CC(C)(C)OC(=O)N1CCN(c2ccc(Nc3ccnc4cc(Cl)ccc34)cc2)CC1 [ADC-012, tert-butyl 4-(4-((7-chloroquinolin-4-yl)amino)phenyl)piperazine-1-carboxylate] |  |  |  |  |  | > 200000 |  |  |  |  |  | 
Clc1ccc2c(Nc3ccc(N4CCN(C5CC5)CC4)cc3)ccnc2c1 [ADC-013, 7-chloro-N-(4-(4-cyclopropylpiperazin-1-yl)phenyl)quinolin-4-amine] |  |  | 84.4 |  | 39.2 | > 200000 |  |  |  |  |  | 
CCN1CCN(c2ccc(Nc3ccnc4ccc(Cl)cc34)cc2)CC1 [ADC-014, 6-chloro-N-(4-(4-ethylpiperazin-1-yl)phenyl)quinolin-4-amine] |  |  | 66 | Equipotency | 69.8 | > 200000 |  |  |  |  |  | 
Clc1ccc2c(Nc3ccc(C4CCNCC4)cc3)ccnc2c1 [ADC-015, 7-chloro-N-(4-(piperidin-4-yl)phenyl)quinolin-4-amine] |  |  | 75.2 |  | 10.2 | 58000 |  |  |  |  |  | 
CC(C)(C)N1CCN(c2ccc(Nc3ccnc4cc(Cl)ccc34)cc2)CC1 [ADC-017, N-(4-(4-(tert-butyl)piperazin-1-yl)phenyl)-7-chloroquinolin-4-amine] | 0.00 |  | 9.17 |  | 5.18 | > 200000 |  |  | 4.0 | 7.6 | ∞ | 
FC(F)(F)c1ccc(N2CCN(c3ccc(Nc4ccnc5cc(Cl)ccc45)cc3)CC2)cc1 [ADC-018, 7-chloro-N-(4-(4-(4-(trifluoromethyl)phenyl)piperazin-1-yl)phenyl)quinolin-4-amine] |  |  | 110 |  | 43.3 | > 200000 |  |  |  |  |  | 
CCN1CCC(c2ccc(Nc3ccnc4cc(Cl)ccc34)cc2)CC1 [ADC-020, 7-chloro-N-(4-(1-ethylpiperidin-4-yl)phenyl)quinolin-4-amine] | 496.7 | 11 | 13.4 |  | 4.56 | 111000 |  |  | 1.8 | 13.4 |  | 
CC(C)N1CCC(c2ccc(Nc3ccnc4cc(Cl)ccc34)cc2)CC1 [ADC-021, 7-chloro-N-(4-(1-isopropylpiperidin-4-yl)phenyl)quinolin-4-amine] | 123.6 | 44.1 | 11.6 |  | 4.94 | > 200000 |  |  | 1.1 | 4.1 |  | 1.1
CCN1CCN(c2ccc(Nc3ccnc4cc(C(F)(F)F)ccc34)cc2)CC1 [ADC-024, N-(4-(4-ethylpiperazin-1-yl)phenyl)-7-(trifluoromethyl)quinolin-4-amine] |  |  |  |  |  | > 200000 |  |  |  |  |  | 
CCN1CCN(c2ccc(Nc3ccnc4cc(Br)ccc34)cc2)CC1 [ADC-025, 7-bromo-N-(4-(4-ethylpiperazin-1-yl)phenyl)quinolin-4-amine] |  |  | 19.2 |  | 10.3 | 48000 |  |  |  |  |  | 
CCCN1CCC(c2ccc(Nc3ccnc4cc(Cl)ccc34)cc2)CC1 [ADC-026, 7-chloro-N-(4-(1-propylpiperidin-4-yl)phenyl)quinolin-4-amine] | 78.0 | 70 | 19.3 |  | 9.25 | > 200000 |  |  |  |  |  | 
CCCCN1CCC(c2ccc(Nc3ccnc4cc(Cl)ccc34)cc2)CC1 [ADC-027, N-(4-(1-butylpiperidin-4-yl)phenyl)-7-chloroquinolin-4-amine] | 129.7 | 42.1 | 20.4 |  | 9.03 | > 200000 |  |  |  |  |  | 
CCC(C)N1CCC(c2ccc(Nc3ccnc4cc(Cl)ccc34)cc2)CC1 (stereo not drawn) [ADC-029, N-(4-(1-(sec-butyl)piperidin-4-yl)phenyl)-7-chloroquinolin-4-amine] | 98.3 | 55.5 | 19 |  | 13.8 | > 200000 |  |  |  |  |  | 
CC(C)CN1CCN(c2ccc(Nc3ccnc4cc(Cl)ccc34)cc2)CC1 [ADC-030, 7-chloro-N-(4-(4-isobutylpiperazin-1-yl)phenyl)quinolin-4-amine] | 391.9 | 13.9 | 17.8 |  | 9.79 | > 200000 |  |  |  |  |  | 
